These results are taken from US7166597B2, “Fused pyrazole derivatives being protein kinase inhibitors” (Glaxo Group Limited, priority 2000, dated 2007).

Test [1] deals with T1, JNK3 kinase (Jnk-3alpha-2) (Homo sapiens, UniProt P53779).
T1 construct: Jnk-3alpha-2 (as a truncated construct, residues 39 to 224) was expressed in E. coli as a GST fusion protein; Following purification the GST portion was removed by thrombin cleavage; fused on or other part: An N-terminal GST tag was used for expression and removed by thrombin cleavage before the assay
T1 sequence (P53779 39-402 limits assumed): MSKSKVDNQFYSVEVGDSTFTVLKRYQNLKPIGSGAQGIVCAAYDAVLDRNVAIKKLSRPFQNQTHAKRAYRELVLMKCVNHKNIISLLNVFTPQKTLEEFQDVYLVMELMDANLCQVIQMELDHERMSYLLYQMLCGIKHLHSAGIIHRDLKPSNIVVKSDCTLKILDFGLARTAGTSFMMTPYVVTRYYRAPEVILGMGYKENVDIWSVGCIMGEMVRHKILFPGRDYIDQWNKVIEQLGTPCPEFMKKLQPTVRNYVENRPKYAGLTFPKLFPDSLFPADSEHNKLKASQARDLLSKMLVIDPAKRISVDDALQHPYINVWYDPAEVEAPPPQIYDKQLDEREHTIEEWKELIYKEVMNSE
In words: JNK3 Kinase Assay. The format is biochemical. The note with it: Table 8; read-out: JNK3 kinase (inhibition of JNK3 kinase, IC50). The protocol:
JNK3 Kinase Assay Jnk-3alpha-2 (as a truncated construct, residues 39 to 224) was expressed in E. coli as a GST fusion protein. Following purification the GST portion was removed by thrombin cleavage. The enzyme was stored at −80° C. Substrate c-Jun was expressed as a GST fusion protein including a signal peptide (biotinylation site) in E. coli. Following purification the substrate was biotinylated on a specific lysine in the signal peptide using biotin ligase. Prior to assay Jnk-3 was pre-activated by incubation with MgATP. The enzyme (10 nM) was screened in 40 mM HEPES (pH 7.4), 150 mM NaCl, 20 mM glycerophosphate, 1 mM DTT, 0.2 mM vanadate, 200 nM biotin-c-Jun, 5 mM MgCl2 and 10 uM ATP. Inhibitors were added over a conc range of from 0 to 10 uM in DMSO (fc 3%). The reaction was stopped by the addition of 25 mM EDTA. Phospho-c-Jun was detected using homogeneous time resolved fluorescence (HTRF) with a Eu-labelled antiphosphoserine (Serine 73) and streptavidin APC.

Test [2] has as its system TNF release from human peripheral blood mononuclear cells (PBMNC). In words: Cell Based Assay for Cytokines Production in PBMNC (TNF release after LPS). The note with it: PBMC, read-out: TNF/PBMNC (inhibition of TNF release from human PBMNC following stimulation with LPS, IC50). As to the method:
Cell Based Assay for Cytokines Production in PBMNC
Human peripheral blood mononuclear cells were isolated from heparinized blood by LSM (Organon Teknika) from volunteer donors. Purified human peripheral blood mononuclear cells were then suspended at a concentration of 2×10^6 cells/ml in RPMI 1640 medium supplemented with 10% heat-inactivated FBS and 1% antibiotics. Aliquots of 100 μl (2×10^5 cells) were added to 96-well microliter plates. Test compounds at […] dose ranges (final-DMSO concentration in culture medium was 0.1%) were then added to the cells for 10–15 minutes before the addition of lipopolysaccharide (1 ng/ml). After incubation at 37° C. in a 5% CO2 incubator for 18–20 h, cell free supernatants were collected by centrifugation at 800 g. The supernatant was then assayed for the amount of TNFα and IL-1β by using Quantikine immunoassay kits developed by R&D Systems (Minneapolis, Minn.).

The subject of test [3] is serum TNFα elevation in mice treated with lipopolysaccharide (LPS). In words: Murine LPS-Stimulated Serum TNF Inhibition. The format is in vivo. The note with it: Mus musculus, 1.5 h, dose 30 mpk, read-out: % inh. (dose): % inhibition of murine TNF production in mice following an LPS challenge. As to the method: Murine LPS—Stimulated Serum TNF Inhibition Protocol
The potency of compounds of the invention as inhibitors of serum TNFα elevation in mice treated with lipopolysaccharide (LPS) was determined as follows; a) for subcutaneous (s.c.) administration, test compound was dissolved in DMSO and added to a mixture of 0.9% sodium chloride solution and 30% Trappsol HPB-20 (Cyclodextrin Technology Development Inc., Gainesville, Fla. USA) for a final DMSO concentration of 1%. The dosing solution was sonicated briefly and 0.2 mL was injected subcutaneously 10 min prior to LPS injection; b) for per oral (p.o.) administration, test compounds were formulated in 0.2 mL of PBS and 0.1% Tween 80 and given orally via gavage 10 min prior to LPS administration.
C3/hen female mice were injected intraperitoneally with 200 μg/kg LPS (Escherichia coil, Serotype 0111:B4, Sigma Chemical Co, St. Louis, Mo.) in PBS and sacrificed 90 min later by CO2 asphyxiation. Blood was immediately taken from the caudal vena cava and plasma prepared and frozen at −80° C. Plasma concentrations of TNF were measured by ELISA (Genzyme Co., Cambridge Mass.).

The next test has as its target T2, p38 kinase (Homo sapiens, UniProt Q16539).
T2 construct: GST (N); made in house; host or cells: E. coli
In words: p38 Kinase Assay. The format is biochemical. The protocol: The peptide substrate used in the p38 assay was biotin-IPTSPITTTYFFFRRR-amide. The p38 and MEK6 proteins were purified to homogeneity from E. coli expression systems. The fusion proteins were tagged at the N-terminus with Glutathione-S-Transferase (GST). The maximum activation was achieved by incubating 20 uL of a reaction mixture of 30 nM MEK6 protein and 120 nM p38 protein in the presence of 1.5 uM peptide and 10 mM Mg (CH3CO2)2 in 100 mM HEPES7 pH 7.5, added to 15 uL of a mixture of 1.5 uM ATP with 0.08 uCi [g-^33P]ATP, with or without 15 uL of inhibitor in 6% DMSO. The controls were reactions in the presence (negative controls) or absence (positive controls) of 50 mM EDTA. Reactions were allowed to proceed for 60 min at room temperature and quenched with addition of 50 uL of 250 mM EDTA and mixed with 150 uL of Streptavidin SPA beads (Amersham) to 0.5 mg/reaction. The Dynatech Microfluor white U-bottom plates were sealed and the beads were allowed to settle overnight. The plates were counted in a Packard TopCount for 60 seconds. IC50 values were obtained by fitting raw data to % I=100*(1−(I−C2)/(C1−C2)), where I was […], C1 was positive control, and C2 was negative control.

[4] abbreviates: Table 8, compounds wherein Z is N, read-out: p38 kinase (inhibition of p38 kinase, IC50).
Where [5] appears, read: Table 7, compounds wherein Z is CH, read-out: P38 kinase (inhibition of p38 kinase, IC50).

Each structure is given as a SMILES string. pIC50: −log10 of the molar value. Where two headings read alike, the source gives them in different places.

T2 sequence (Q16539 whole entry): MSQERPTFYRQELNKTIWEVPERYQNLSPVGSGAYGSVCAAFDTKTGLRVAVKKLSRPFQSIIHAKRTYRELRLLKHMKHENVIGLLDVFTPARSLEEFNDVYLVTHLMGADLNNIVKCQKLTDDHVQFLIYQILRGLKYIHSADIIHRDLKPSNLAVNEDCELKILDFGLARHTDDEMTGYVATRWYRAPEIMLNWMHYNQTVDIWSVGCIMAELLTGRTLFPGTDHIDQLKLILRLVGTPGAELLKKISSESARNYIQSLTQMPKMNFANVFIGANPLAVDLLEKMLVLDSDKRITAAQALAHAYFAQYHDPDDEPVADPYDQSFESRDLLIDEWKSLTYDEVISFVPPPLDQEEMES

Regarding `Fc1ccc(-c2nn3cc(C(F)(F)F)ccc3c2-c2ccnc(NC3CC3)n2)cc1` [Example 68, N-Cyclopropyl-4-[2-(4-fluorophenyl)-6-trifluoromethylpyrazolo[1,5-a]pyridin-3-yl]-2-pyrimidinamine], the pIC50 in test [1] was greater than 6.30; in test [2] (Table 8, LPS stimulation), greater than 6.30; at p38 kinase (setting [4]), greater than 6.30. The inhibition in vivo at 30 mg/kg in test [3] (Table 8, LPS challenge) worked out at 24%.

In the case of `N#Cc1ccc2c(-c3ccnc(NC4CC4)n3)c(-c3ccc(F)cc3)nn2c1` [Example 73, N-Cyclopropyl-4-[6-cyano-2-(4-fluorophenyl)pyrazolo[1,5-a]pyridin-3-yl]-2-pyrimidinamine], the pIC50 was greater than 6.30 in test [1]; greater than 6.30 in test [2] (Table 8, LPS stimulation); greater than 6.30 at p38 kinase (setting [4]). In test [3] (Table 8, LPS challenge), the inhibition in vivo at 30 mg/kg stood at 52%.

Take `COc1ccn2nc(-c3ccc(F)cc3)c(-c3ccncc3)c2c1` [Example 5, 2-(4-Fluorophenyl)-5-methoxy-3-(4-pyridinyl)pyrazolo[1,5-a]pyridine]: the pIC50 in test [2] (Table 7, LPS stimulation) is 5.30 to 6.30; at p38 kinase (setting [5]) it was 5.30 to 6.30. The inhibition in vivo at 30 mg/kg in test [3] (Table 7, LPS challenge) worked out at 11%.

In the case of `NC(=O)c1ccc2c(-c3ccnc(NC4CC4)n3)c(-c3ccc(F)cc3)nn2c1` [Example 75, 2-(4-Fluorophenyl)-3-(4-(2-cyclopropylamino)pyrimidinyl)-6-pyrazolo-[1,5-a]pyridinylcarboxamide], the pIC50 in test [1] was greater than 6.30; in test [2] (Table 8, LPS stimulation), greater than 6.30. Moreover, the inhibition in vivo at 30 mg/kg in test [3] (Table 8, LPS challenge) worked out at 90%.

For `Fc1ccc(-c2nn3ccccc3c2-c2ccnc(NCc3ccc(Cl)cc3)c2)cc1` [Example 31, N-(4-Chlorobenzyl)-4-[2-(4-fluorophenyl)pyrazolo[1,5-a]pyridin-3-yl]-2-pyridinamine], in test [2] (Table 7, LPS stimulation), the pIC50 was greater than 6.30. In test [3] (Table 7, LPS challenge), the inhibition in vivo at 30 mg/kg was determined as 42%.

Turning to `CSc1nccc(-c2c(-c3ccc(F)cc3)nn3ccccc23)n1` [Example 57, 2-(4-Fluorophenyl)-3-(4-(2-methylthio)pyrimidinyl)pyrazolo[1,5-a]-pyridine], the pIC50 in test [2] (Table 8, LPS stimulation) was greater than 6.30; at p38 kinase (setting [4]) it was greater than 6.30. Moreover, the inhibition in vivo at 30 mg/kg in test [3] (Table 8, LPS challenge) was 56%.

For the compound `Fc1ccc(-c2nn3ccccc3c2-c2ccnc(NCc3ccccn3)n2)cc1` [Example 82, 4-[2-(4-Fluorophenyl)pyrazolo[1,5-a]pyridin-3-yl]-N-(2-pyridinylmethyl)-2-pyrimidinamine], the pIC50 in test [2] (Table 8, LPS stimulation) was greater than 6.30; on p38 kinase (setting [4]), greater than 6.30. Also, in test [3] (Table 8, LPS challenge), the inhibition in vivo at 30 mg/kg worked out at 87%.

As for `CC(C)Nc1nccc(-c2c(-c3ccc(F)cc3)nn3cc(C(F)(F)F)ccc23)n1` [Example 69, 4-[2-(4-Fluorophenyl)-6-trifluoromethylpyrazolo[1,5-a]pyridin-3-yl]-N-(2-propyl)-2-pyrimidinamine], the pIC50 is greater than 6.30 in test [2] (Table 8, LPS stimulation) and greater than 6.30 at p38 kinase (setting [4]). In addition, the inhibition in vivo at 30 mg/kg in test [3] (Table 8, LPS challenge) was determined as 45%.

Consider `Fc1ccc(-c2nn3ccccc3c2-c2ccnc(NCCc3cnc[nH]3)n2)cc1` [Example 80, 4-[2-(4-Fluorophenyl)pyrazolo[1,5-a]pyridin-3-yl]-N-[2-(1H-imidazol-5-yl)ethyl]-2-pyrimidinamine], for which the pIC50 in test [2] (Table 8, LPS stimulation) is greater than 6.30; at p38 kinase (setting [4]) it was greater than 6.30.

In the case of `Fc1ccc(-c2nn3cc(C(F)(F)F)ccc3c2-c2ccncc2)cc1` [Example 23, 2-(4-Fluorophenyl)-3-(4-pyridinyl)-6-(trifluoromethyl)pyrazolo[1,5-a]pyridine], the pIC50 in test [2] (Table 7, LPS stimulation) is greater than 6.30; at p38 kinase (setting [5]), greater than 6.30.

For the compound `Nc1nccc(-c2c(-c3ccc(F)cc3)nn3ccccc23)n1` [Example 64, 4-[2-(4-Fluorophenyl)pyrazolo[1,5-a]pyridin-3-yl]-2-pyrimidinamine], the pIC50 is greater than 6.30 in test [2] (Table 8, LPS stimulation) and greater than 6.30 at p38 kinase (setting [4]). Also, the inhibition in vivo at 30 mg/kg in test [3] (Table 8, LPS challenge) is 62%.

Regarding `CCCCNc1nccc(-c2c(-c3ccc(F)cc3)nn3ccccc23)n1` [Example 60, N-Butyl-4-[2-(4-fluorophenyl)pyrazolo[1,5-a]pyridin-3-yl]-2-pyrimidin-amine], the pIC50 in test [2] (Table 8, LPS stimulation) was greater than 6.30; on p38 kinase (setting [4]), greater than 6.30. Besides, in test [3] (Table 8, LPS challenge), the inhibition in vivo at 30 mg/kg came out at 88%.
